Experimental data reported in patent publication US10045978B2 (AB SCIENCE, priority 2010, dated 2018).

Columns and labels:
[1] = tested on: patients with indolent forms of mastocytosis with handicap; assay: Example 1 phase 2a study, safety assessment
[2] = tested on: Ba/F3 cells expressing human or mouse wild-type c-Kit; conditions: stem cell factor-induced proliferation and c-Kit tyrosine phosphorylation; cited from earlier work
[3] = tested on: patients with smoldering systemic, indolent systemic or cutaneous mastocytosis with handicap; assay: phase 3 study AB06006, masitinib versus placebo; assay type: in vivo, human
Excerpt: The trial lasted 24 weeks with possible extension. In accordance with protocol amendment version 7.0 (v7), the study population was amended to a more restricted subpopulation of mastocytosis. […] The trial lasted 24 weeks with possible extension. […] To be noted, for the purpose of efficacy analysis a patient was classified as severe if they suffered from at least one of the main handicaps constituting the primary endpoint: […] The criterion of “at least two of the following handicaps” including handicaps on stools and micturition, was relaxed to “at least one of the main handicaps” (i.e. pruritus, flushes, depression and fatigue). […] At each patient evaluation between weeks 8 and 24, each of the above four severe symptoms was evaluated. […] In this case, missing data was imputed as failure (missing=failure as primary analysis). • Case 2: discontinuation for a documented reason excluding toxicity or lack of efficacy. In this case, non-observed values can be considered as Missing At Random (MAR), and no imputation will be done (Observed Cases). • Replacement of missing value for patients present at the visit: If data was missing despite the patient being present at the visit, said missing data was not replaced. Secondary Analysis: […] (asthenia). • A second group comprised patients diagnosed as having severe indolent systemic mastocytosis, severe smoldering systemic mastocytosis, or severe cutaneous mastocytosis. […] This group provides comparative analysis for patient selection according to variant of mastocytosis (i.e. systemic versus cutaneous). • A third group comprised all randomized patients to study AB06006, corresponding therefore to the least restricted population, comprising patients with severe/non severe indolent and smoldering systemic mastocytosis, and severe/non severe cutaneous mastocytosis. This group provides comparative analysis based on patient selection according to severity of mast cell mediator release symptoms. […] ≥40. Diff=absolute difference in response rates between treatment-arms of a given population (masitinib arm minus placebo arm). Factor Diff=ratio of 'Diff' between compared populations showing relative superiority of response rate for severe systemic population over the comparator population. […] ****PF=patients with both pruritus and flushes handicap at baseline.

[4] = tested on: Ba/F3 cells expressing the D816V c-Kit mutation; conditions: proliferation; cited from earlier work
[5] = moderate baseline handicap, all patients
[6] = moderate baseline handicap, all patients (n = 110)
[7] = moderate baseline handicap, severe indolent/smoldering systemic
[8] = moderate baseline handicap, severe indolent/smoldering systemic (n = 67)
[9] = moderate baseline handicap, severe systemic vs all patients
[10] = severe baseline handicap, severe cutaneous/indolent/smoldering
[11] = severe baseline handicap, severe cutaneous/indolent/smoldering (n = 110)
[12] = severe baseline handicap, severe indolent/smoldering systemic
[13] = severe baseline handicap, severe indolent/smoldering systemic (n = 67)
[14] = severe baseline handicap, severe systemic vs severe cutaneous/indolent/smoldering

For `Cc1ccc(NC(=O)c2ccc(CN3CCN(C)CC3)cc2)cc1Nc1nc(-c2cccnc2)cs1` [masitinib, 4-(4-methylpiperazin-1-ylmethyl)-N-[4-methyl-3-(4-pyridin-3ylthiazol-2-ylamino)phenyl]benzamide], the “Early study discontinuation: Adverse event” value ([1]; All (N = 25)) was 12 N, %, the “incidence of skin rash” value ([1]; after W12) was “no incidence” and the “At least one suspected AE” value ([1]; extension phase, All (N = 17)) was 10 (58.8%) subjects (%). The “suspected AE: Abdominal pain” value ([1]; extension phase, All (N = 17)) was 1 (5.9%) subjects (%), the “suspected AE: Aphthous stomatitis” value ([1]; extension phase, All (N = 17)) was 1 (5.9%) subjects (%) and the “suspected AE: Arthralgia” value ([1]; extension phase, All (N = 17)) was 1 (5.9%) subjects (%). For the same molecule, the “suspected AE: Blepharitis” value ([1]; extension phase, All (N = 17)) was 1 (5.9%) subjects (%), the “suspected AE: Cytolytic hepatitis” value ([1]; extension phase, All (N = 17)) was 1 (5.9%) subjects (%) and the “suspected AE: Dermatitis psoriasiform” value ([1]; extension phase, All (N = 17)) was 1 (5.9%) subjects (%). For the same molecule, the “suspected AE: Eczema” value ([1]; extension phase, All (N = 17)) was 1 (5.9%) subjects (%), the “suspected AE: Gamma-glutamyltransferase increased” value ([1]; extension phase, All (N = 17)) was 1 (5.9%) subjects (%) and the “suspected AE: Gingivitis” value ([1]; extension phase, All (N = 17)) was 1 (5.9%) subjects (%). For the same molecule, the “suspected AE: Muscle spasms” value ([1]; extension phase, All (N = 17)) was 1 (5.9%) subjects (%), the “suspected AE: Vomiting” value ([1]; extension phase, All (N = 17)) was 1 (5.9%) subjects (%) and the “At least one suspected AE” value ([1]; extension phase, Mild) was 6 (35.3%) subjects (%). For the same molecule, the “suspected AE: Arthralgia” value ([1]; extension phase, Mild) was 1 (5.9%) subjects (%), the “suspected AE: Blepharitis” value ([1]; extension phase, Mild) was 1 (5.9%) subjects (%) and the “suspected AE: Dermatitis psoriasiform” value ([1]; extension phase, Mild) was 1 (5.9%) subjects (%). The “suspected AE: Edema—all categories” value ([1]; extension phase, Mild) was 1 (5.9%) subjects (%), the “suspected AE: Gamma-glutamyltransferase increased” value ([1]; extension phase, Mild) was 1 (5.9%) subjects (%) and the “suspected AE: Gingivitis” value ([1]; extension phase, Mild) was 1 (5.9%) subjects (%). For the same molecule, the “suspected AE: Nausea” value ([1]; extension phase, Mild) was 2 (11.8%) subjects (%), the “suspected AE: Nausea/Vomiting” value ([1]; extension phase, Mild) was 2 (11.8%) subjects (%) and the “At least one suspected AE” value ([1]; extension phase, Moderate) was 5 (29.4%) subjects (%). The “suspected AE: Abdominal pain” value ([1]; extension phase, Moderate) was 1 (5.9%) subjects (%), the “suspected AE: Cytolytic hepatitis” value ([1]; extension phase, Moderate) was 1 (5.9%) subjects (%) and the “suspected AE: Eczema” value ([1]; extension phase, Moderate) was 1 (5.9%) subjects (%). The “suspected AE: Muscle spasms” value ([1]; extension phase, Moderate) was 1 (5.9%) subjects (%), the “suspected AE: Nausea/Vomiting” value ([1]; extension phase, Moderate) was 1 (5.9%) subjects (%) and the “suspected AE: Vomiting” value ([1]; extension phase, Moderate) was 1 (5.9%) subjects (%). For the same molecule, the “At least one suspected AE” value ([1]; extension phase, Severe) was 1 (5.9%) subjects (%), the “suspected AE: Aphthous stomatitis” value ([1]; extension phase, Severe) was 1 (5.9%) subjects (%) and the “At least one suspected AE” value ([1]; initial phase, Mild) was 11 (44.0%) subjects (%). For the same molecule, the “suspected AE: Abdominal pain” value ([1]; initial phase, Mild) was 2 (8.0%) subjects (%), the “suspected AE: Diarrhea” value ([1]; initial phase, Mild) was 1 (4.0%) subjects (%) and the “suspected AE: Edema - all categories” value ([1]; initial phase, Mild) was 3 (12.0%) subjects (%). For the same molecule, the “suspected AE: Muscle spasms” value ([1]; initial phase, Mild) was 1 (4.0%) subjects (%), the “suspected AE: Nausea” value ([1]; initial phase, Mild) was 5 (20.0%) subjects (%) and the “suspected AE: Nausea/Vomiting” value ([1]; initial phase, Mild) was 6 (24.0%) subjects (%). For the same molecule, the “suspected AE: Vomiting” value ([1]; initial phase, Mild) was 1 (4.0%) subjects (%), the “At least one suspected AE” value ([1]; initial phase, Moderate) was 19 (76.0%) subjects (%) and the “suspected AE: Abdominal pain” value ([1]; initial phase, Moderate) was 3 (12.0%) subjects (%). For the same molecule, the “suspected AE: Asthaenia” value ([1]; initial phase, Moderate) was 4 (16.0%) subjects (%), the “suspected AE: Diarrhea” value ([1]; initial phase, Moderate) was 2 (8.0%) subjects (%) and the “suspected AE: Dyspnoea” value ([1]; initial phase, Moderate) was 3 (12.0%) subjects (%). For the same molecule, the “suspected AE: Edema - all categories” value ([1]; initial phase, Moderate) was 8 (32.0%) subjects (%), the “suspected AE: Eructation” value ([1]; initial phase, Moderate) was 2 (8.0%) subjects (%) and the “suspected AE: Headache” value ([1]; initial phase, Moderate) was 5 (20.0%) subjects (%). For the same molecule, the “suspected AE: Muscle spasms” value ([1]; initial phase, Moderate) was 7 (28.0%) subjects (%), the “suspected AE: Nausea” value ([1]; initial phase, Moderate) was 7 (28.0%) subjects (%) and the “suspected AE: Nausea/Vomiting” value ([1]; initial phase, Moderate) was 8 (32.0%) subjects (%). For the same molecule, the “suspected AE: Rash - all categories” value ([1]; initial phase, Moderate) was 6 (24.0%) subjects (%), the “suspected AE: Vomiting” value ([1]; initial phase, Moderate) was 4 (16.0%) subjects (%) and the “At least one suspected AE” value ([1]; initial phase, Severe) was 9 (36.0%) subjects (%). For the same molecule, the “suspected AE: Asthaenia” value ([1]; initial phase, Severe) was 3 (12.0%) subjects (%), the “suspected AE: Diarrhea” value ([1]; initial phase, Severe) was 1 (4.0%) subjects (%) and the “suspected AE: Edema - all categories” value ([1]; initial phase, Severe) was 2 (8.0%) subjects (%). The “suspected AE: Eructation” value ([1]; initial phase, Severe) was 1 (4.0%) subjects (%), the “suspected AE: Muscle spasms” value ([1]; initial phase, Severe) was 1 (4.0%) subjects (%) and the “suspected AE: Nausea” value ([1]; initial phase, Severe) was 1 (4.0%) subjects (%). The “suspected AE: Nausea/Vomiting” value ([1]; initial phase, Severe) was 1 (4.0%) subjects (%), the “suspected AE: Rash - all categories” value ([1]; initial phase, Severe) was 2 (8.0%) subjects (%) and the “treatment-related SAEs” value ([1]; one patient, two episodes of agranulocytosis at 3 mg/kg/day) was “Two”. For the same molecule, the “patients who withdrew due to occurrence of AEs” value ([1]; prior to W12, 2/25 patients) was 8%, the IC50 [2] was 150 ± 80 nM and the “2H[75%] Diff (masitinib arm minus placebo arm)” value [3, 5] was 2.9%. For the same molecule, the “3H[75%] Diff (masitinib arm minus placebo arm)” value [3, 5] was 2.3%, the “4H[75%] Diff (masitinib arm minus placebo arm)” value [3, 5] was 0.4% and the “PF Diff (masitinib arm minus placebo arm)” value [3, 5] was 0.2%. For the same molecule, the “2H[75%] cumulative response” value [3, 6] was 23.3%, the “3H[75%] cumulative response” value [3, 6] was 20.3% and the “4H[75%] cumulative response” value [3, 6] was 16.3%. The PF cumulative response [3, 6] was 26.9%, the “2H[75%] Diff (masitinib arm minus placebo arm)” value [3, 7] was 12.2% and the “3H[75%] Diff (masitinib arm minus placebo arm)” value [3, 7] was 12.8%. For the same molecule, the “4H[75%] Diff (masitinib arm minus placebo arm)” value [3, 7] was 10.1%, the “PF Diff (masitinib arm minus placebo arm)” value [3, 7] was 10.7% and the “2H[75%] cumulative response” value [3, 8] was 28.2%. The “3H[75%] cumulative response” value [3, 8] was 24.8%, the “4H[75%] cumulative response” value [3, 8] was 19.6% and the PF cumulative response [3, 8] was 28.7%. The “2H[75%] Factor Diff” value [3, 9] was 4.2, the “3H[75%] Factor Diff” value [3, 9] was 5.6 and the “4H[75%] Factor Diff” value [3, 9] was 25.3. For the same molecule, the “PF Factor Diff” value [3, 9] was 53.5, the “2H[75%] Diff (masitinib arm minus placebo arm)” value [3, 10] was 7.4% and the “3H[75%] Diff (masitinib arm minus placebo arm)” value [3, 10] was 6.3%. For the same molecule, the “4H[75%] Diff (masitinib arm minus placebo arm)” value [3, 10] was 3.3%, the “PF Diff (masitinib arm minus placebo arm)” value [3, 10] was 6.9% and the “2H[75%] cumulative response” value [3, 11] was 22.0%. For the same molecule, the “3H[75%] cumulative response” value [3, 11] was 20.0%, the “4H[75%] cumulative response” value [3, 11] was 15.4% and the PF cumulative response [3, 11] was 30.6%. For the same molecule, the “2H[75%] Diff (masitinib arm minus placebo arm)” value [3, 12] was 16.5%, the “3H[75%] Diff (masitinib arm minus placebo arm)” value [3, 12] was 15.2% and the “4H[75%] Diff (masitinib arm minus placebo arm)” value [3, 12] was 11.1%. The “PF Diff (masitinib arm minus placebo arm)” value [3, 12] was 17.8%, the “2H[75%] cumulative response” value [3, 13] was 27.2% and the “3H[75%] cumulative response” value [3, 13] was 24.9%. For the same molecule, the “4H[75%] cumulative response” value [3, 13] was 18.6%, the PF cumulative response [3, 13] was 35.4% and the “2H[75%] Factor Diff” value [3, 14] was 2.2. For the same molecule, the “3H[75%] Factor Diff” value [3, 14] was 2.4, the “4H[75%] Factor Diff” value [3, 14] was 3.4 and the “PF Factor Diff” value [3, 14] was 2.6. The IC50 [4] was 5000 ± 2000 nM.
